Viability data for 31 compounds are collected here from patent publication US11174253B2, “Compound and pharmaceutical composition containing the same” (ALPHALA CO., LTD., priority 2017, dated 2021).

The first test deals with hepatocellular carcinoma cell line Hep3B. The test is described as follows: Growth inhibition of Hep3B cells, 48 hr treatment, Hoechst 33342 nucleus count (GE InCell 2200). The format is cell-based. The following applies: Homo sapiens, Table 1, ratio of number of tumor cells treated with 10 μM compound to non-treated cells. Here is the method: The potency of selected compounds was defined by the growth inhibition ability to the hepatocellular carcinoma cell line Hep3B. The Hep3B cells were treated with selected compounds for 48 hr under 37° C., 5% CO2, and 95% relative humidity.
The number of treated cells was determined by GE InCell 2200 system, and treated cells were stained with Hoechst 33342 which can reveal the remained nucleus in culture plate. The proportion of survival cells then were calculated with the ratio of treated/non-treated cells. The growth inhibition/cytotoxic effect of selected compounds were evaluated by the following protocol of NCI-60 screening platform. The human tumor cell lines are plating on a 96 well plate in a fixed density 24 hr prior compound treatment. Compounds with multiple concentrations are then added into each well for further 48 hr incubation. Cell viability is assessed by MTS method and the potency of compound is represented by GI50 and LC50 calculated by MTS result.
Herein, the “Ratio in 10 μM (%)” in the following Tables 1-6 refers to the ratio of the number of tumor cells treated with 10 μM of selected compounds to the number of non-treated tumer cells.
In general, viability refers to a per cent measure of how many cells are alive, often set against a control. As for `CCCCOc1ccc(-c2nnc(NC(=O)Cc3ccc4nc(N)sc4c3)s2)cc1` [Compound 1-21, 2-(2-aminobenzo[d]thiazol-6-yl)-N-(5-(4-butoxyphenyl)-1,3,4-thiadiazol-2-yl)acetamide], the viability at 10 µM turned out to be 81%.

As for `CN(C)c1ccc(-c2nnc(NC(=O)Cc3ccc4nc(N)sc4c3)s2)cc1` [Compound 1-9, 2-(2-aminobenzo[d]thiazol-6-yl)-N-(5-(4-(dimethylamino)phenyl)-1,3,4-thiadiazol-2-yl)acetamide], the viability at 10 µM was 60%.

The test is the same for the next values; noted with them: Homo sapiens, Table 3, ratio of number of tumor cells treated with 10 μM compound to non-treated cells.
With `CCOc1ccc(-c2csc(NC(=O)Cc3ccc4nc(N)sc4c3)n2)c(OCC)c1` [Compound 3-12, 2-(2-aminobenzo[d]thiazol-6-yl)-N-(4-(2,4-diethoxyphenyl)thiazol-2-yl)acetamide], the viability at 10 µM was determined as 50%. The same measure, in the same setting: the same measure for `COc1cccc(-c2nc(NC(=O)Cc3ccc4nc(N)sc4c3)sc2Br)c1` [Compound 3-8, 2-(2-aminobenzo[d]thiazol-6-yl)-N-(5-bromo-4-(3-methoxyphenyl)thiazol-2-yl)acetamide]: 84%. On to `COc1ccc(-c2sc(NC(=O)Cc3ccc4nc(N)sc4c3)nc2-c2ccc(C)cc2)cc1OC` [Compound 3-5, 2-(2-aminobenzo[d]thiazol-6-yl)-N-(5-(3,4-dimethoxyphenyl)-4-(p-tolyl)thiazol-2-yl)acetamide], for which the viability at 10 µM came out at 85%.

Still in this test, the particulars now being: Homo sapiens, Table 5, ratio of number of tumor cells treated with 10 μM compound to non-treated cells.
`O=C(Nc1nc(-c2ccc([N+](=O)[O-])cc2)c(Oc2ccccc2)s1)c1ccc([N+](=O)[O-])s1` [Compound 5-60, 5-nitro-N-(4-(4-nitrophenyl)-5-phenoxythiazol-2-yl)thiophene-2-carboxamide]: the viability at 10 µM worked out at 38%. `CCOc1ccccc1-c1nc(NC(=O)c2ccc([N+](=O)[O-])s2)sc1Oc1ccccc1` [Compound 5-5, N-(4-(2-ethoxyphenyl)-5-phenoxythiazol-2-yl)-5-nitrothiophene-2-carboxamide]: the viability at 10 µM was found to be 47%.

For `CN(C)CC#Cc1ccc(-c2nc(NC(=O)c3ccc([N+](=O)[O-])s3)sc2Oc2ccccc2)s1` [Compound 5-46, N-(4-(5-(3-(dimethylamino)prop-1-yn-1-yl)thiophen-2-yl)-5-phenoxythiazol-2-yl)-5-nitrothiophene-2-carboxamide], the viability at 10 µM was found to be 53%. Same read-out and setting: under `CCCCc1ccc(-c2nc(NC(=O)c3ccc([N+](=O)[O-])s3)sc2Oc2ccc(F)cc2)cc1` [Compound 5-94, N-(4-(4-butylphenyl)-5-(4-fluorophenoxy)thiazol-2-yl)-5-nitrothiophene-2-carboxamide] stands 32%; under `CCCCOc1ccc(-c2nc(NC(=O)c3ccc([N+](=O)[O-])s3)sc2Oc2cc(C)c(Br)c(C)c2)cc1` [Compound 5-87, N-(5-(4-bromo-3,5-dimethylphenoxy)-4-(4-butoxyphenyl)thiazol-2-yl)-5-nitrothiophene-2-carboxamide], 36%. For the compound `COc1cccc(-c2nc(NC(=O)c3ccc([N+](=O)[O-])s3)sc2Oc2ccccc2)c1` [Compound 5-4, N-(4-(3-methoxyphenyl)-5-phenoxythiazol-2-yl)-5-nitrothiophene-2-carboxamide], the viability at 10 µM came to 63%. Regarding `CC(C)(C)C#Cc1ccc(-c2nc(NC(=O)c3ccc([N+](=O)[O-])s3)sc2Oc2ccccc2)s1` [Compound 5-41, N-(4-(5-(3,3-dimethylbut-1-yn-1-yl)thiophen-2-yl)-5-phenoxythiazol-2-yl)-5-nitrothiophene-2-carboxamide], the viability at 10 µM amounted to 41%. The same measure, in the same setting: under `CCOc1ccc(-c2nc(NC(=O)c3ccc([N+](=O)[O-])s3)sc2Oc2ccc(C(F)(F)F)cc2)cc1` [Compound 5-25, N-(4-(4-ethoxyphenyl)-5-(4-(trifluoromethyl)phenoxy)thiazol-2-yl)-5-nitrothiophene-2-carboxamide] stands 32%; under `CCc1ccc(-c2nc(NC(=O)c3ccc([N+](=O)[O-])s3)sc2Oc2ccc(C(C)(C)C)cc2)cc1` [Compound 5-102, N-(5-(4-(tert-butyl)phenoxy)-4-(4-ethylphenyl)thiazol-2-yl)-5-nitrothiophene-2-carboxamide], 40%; under `CCc1ccc(-c2nc(NC(=O)c3ccc([N+](=O)[O-])s3)sc2Oc2ccc(C(C)(C)CC)cc2)cc1` [Compound 5-103, N-(4-(4-ethylphenyl)-5-(4-(tert-pentyl)phenoxy)thiazol-2-yl)-5-nitrothiophene-2-carboxamide], 33%.

Regarding `CCOc1cc(OCC)cc(-c2nc(NC(=O)c3ccc([N+](=O)[O-])s3)sc2Oc2ccccc2)c1` [Compound 5-36, N-(4-(3,5-diethoxyphenyl)-5-phenoxythiazol-2-yl)-5-nitrothiophene-2-carboxamide], the viability at 10 µM came out at 39%. Same read-out and setting: the same measure for `CNC(=O)c1ccc(-c2nc(NC(=O)c3ccc([N+](=O)[O-])s3)sc2Oc2ccc(F)cc2)cc1` [Compound 5-35, N-(5-(4-fluorophenoxy)-4-(4-(methylcarbamoyl)phenyl)thiazol-2-yl)-5-nitrothiophene-2-carboxamide]: 68%; for `Cc1ccc(Oc2sc(NC(=O)c3ccc([N+](=O)[O-])s3)nc2-c2ccc(C(C)(C)C)cc2)cc1` [Compound 5-105, N-(4-(4-(tert-butyl)phenyl)-5-(p-tolyloxy)thiazol-2-yl)-5-nitrothiophene-2-carboxamide]: 30%. Same read-out and setting: under `CCOc1ccc(-c2nc(NC(=O)c3ccc([N+](=O)[O-])s3)sc2Oc2ccccc2)c(OCC)c1` [Compound 5-12, N-(4-(2,4-diethoxyphenyl)-5-phenoxythiazol-2-yl)-5-nitrothiophene-2-carboxamide] stands 46%; under `CCOc1ccc(-c2nc(N(C)C(=O)c3ccc([N+](=O)[O-])s3)sc2Oc2ccccc2)cc1` [Compound 5-82, N-(4-(4-ethoxyphenyl)-5-phenoxythiazol-2-yl)-N-methyl-5-nitrothiophene-2-carboxamide], 59%; under `O=C(Nc1nc(-c2ccc(C(F)(F)F)cc2)c(Oc2ccccc2F)s1)c1ccc([N+](=O)[O-])s1` [Compound 5-83, N-(5-(2-fluorophenoxy)-4-(4-(trifluoromethyl)phenyl)thiazol-2-yl)-5-nitrothiophene-2-carboxamide], 36%.

The test is the same for the next values; noted with them: Homo sapiens, Table 6, ratio of number of tumor cells treated with 10 μM compound to non-treated cells.
With `CCOc1ccc(-c2nc(NC(=O)c3ccc([N+](=O)[O-])s3)sc2Cc2ccc(F)cc2)cc1` [Compound 6-35, N-(4-(4-ethoxyphenyl)-5-(4-fluorobenzyl)thiazol-2-yl)-5-nitrothiophene-2-carboxamide], the viability at 10 µM is 47%. Still for that read-out and setting: the same measure for `CN1CCN(C(=O)c2sc(NC(=O)c3ccc([N+](=O)[O-])s3)nc2-c2ccc(C(C)(C)C)cc2)CC1` [Compound 6-43, N-(4-(4-(tert-butyl)phenyl)-5-(4-methylpiperazine-1-carbonyl)thiazol-2-yl)-5-nitrothiophene-2-carboxamide]: 38%; for `CC(C)(C)c1ccc(-c2nc(NC(=O)c3ccc([N+](=O)[O-])s3)sc2C#N)cc1` [Compound 6-50, N-(4-(4-(tert-butyl)phenyl)-5-cyanothiazol-2-yl)-5-nitrothiophene-2-carboxamide]: 53%; for `CCOc1ccc(-c2nc(NC(=O)c3ccc([N+](=O)[O-])s3)sc2-c2ccc(F)cc2)cc1` [Compound 6-15, N-(4-(4-ethoxyphenyl)-5-(4-fluorophenyl)thiazol-2-yl)-5-nitrothiophene-2-carboxamide]: 64%. On the same count and under the same terms, under `CC(C)(C)c1ccc(-c2nc(NC(=O)c3ccc([N+](=O)[O-])s3)sc2Cc2ccc(F)cc2)cc1` [Compound 6-37, N-(4-(4-(tert-butyl)phenyl)-5-(4-fluorobenzyl)thiazol-2-yl)-5-nitrothiophene-2-carboxamide] stands 39%; under `O=C(Nc1nc(-c2ccccc2[N+](=O)[O-])cs1)c1ccc([N+](=O)[O-])s1` [Compound 6-11, 5-nitro-N-(4-(2-nitrophenyl)thiazol-2-yl)thiophene-2-carboxamide], 62%; under `Cc1ccc(-c2nc(NC(=O)c3ccc([N+](=O)[O-])o3)sc2-c2ccc(Br)cc2)cc1` [Compound 6-32, N-(5-(4-bromophenyl)-4-(p-tolyl)thiazol-2-yl)-5-nitrofuran-2-carboxamide], 27%.

Take `CCCOc1ccc(-c2nc(NC(=O)c3ccc([N+](=O)[O-])s3)sc2C(=O)N2CCOCC2)cc1` [Compound 6-29, N-(5-(morpholine-4-carbonyl)-4-(4-propoxyphenyl)thiazol-2-yl)-5-nitrothiophene-2-carboxamide]: the viability at 10 µM worked out at 58%.

Regarding `CCCOc1ccc(-c2nc(NC(=O)c3ccc([N+](=O)[O-])s3)sc2C(=O)Nc2ccc(F)cc2F)cc1` [Compound 6-31, N-(2,4-difluorophenyl)-2-(5-nitrothiophene-2-carboxamido)-4-(4-propoxyphenyl)thiazole-5-carboxamide], the viability at 10 µM is 61%. The same measure, in the same setting: under `CC(C)(C)c1ccc(-c2nc(NC(=O)c3ccc([N+](=O)[O-])s3)sc2Br)cc1` [Compound 6-60, N-(5-bromo-4-(4-(tert-butyl)phenyl)thiazol-2-yl)-5-nitrothiophene-2-carboxamide] stands 45%.
